{"source": "patent US8048924B2", "about": "“Methods and compositions employing 4-aminophenylacetic acid compounds” (Biocon Limited, priority 2001, dated 2011)", "key": {"[1]": {"assay": "Metabolism of APAZA and sulfasalazine following oral delivery to rats (urine and feces, HPLC)", "conditions": "rat", "experimental": "The degradation of the APAZA™ therapeutic agent (5-(4-carboxymethyl-phenylazo)-2-hydroxy-benzoic acid), and sulfasalazine (used as a control) and the generation of their metabolites when these compounds were orally dosed to rats were measured to be able to confirm that both the APAZA™ therapeutic agent and sulfasalazine undergo bacterial azo reduction and yield their metabolites, 5-aniinosalicylic acid (5-ASA) and sulfapyridine for sulfasalazine, 5-aminosalicylic acid (5-ASA) and 4-aminophenyl acetic acid (4-APAA) for the APAZA™ therapeutic agent.\nThis experiment was performed to confirm that an azo compound, the APAZA™ therapeutic agent, undergoes a bacterial reduction process and yields its metabolites in in-vivo metabolism. The quantification of its metabolites was also carried out. Sulfasalazine, not part of the present invention, was used as a control since similar azo bond cleavage by bacteria occurs with it, which results in 5-aminosalicylic acid and sulfapyridine as its metabolites. Both the APAZA™ therapeutic agent and sulfasalzine were degraded and their metabolites were produced as expected.\nA total of 8 rats were used for the experiment and methylcellulose was used as a vehicle. The dosage amount was 100 mg/kg per rat. […] Both urine and feces were collected over 4 days and analyzed by HPLC. […]"}, "DSS induced colitis": {"tested_on": "DSS induced colitis", "assay": "Dextran sulfate sodium (DSS) colitis in the rat", "format": "in vivo, Sprague-Dawley rats", "conditions": "oral gavage bid", "experimental": "The effectiveness of APAZA™ and sulfasalazine in ameliorating intestinal inflammation in a model of dextran sulfate sodium (DSS) induced colitis in Sprague-Dawley rats was determined. Thirty-six male Sprague-Dawley rats that were 7-8 weeks old and weighed 240-260 g were studied. […] After completion of the treatment period, rats were euthanized and the efficacy of the test drugs in inhibiting colitis was assessed by the following: • Disease Activity Index Scoring: • Body weight • Colon wet weight: body weight ratios • Colonic Myeloperoxidase (MPO) activity • Histopathological changes of the colon"}}, "data": [{"compound": "Nc1ccc(O)c(C(=O)O)c1", "note": "[5-ASA, 5-amino-2-hydroxy-benzoic acid, reference compound]", "values": [{"measurement": "conversion of 5-ASA in vivo", "setting": "[1]", "result": "quickly converted to acetylated 5-ASA"}]}, {"compound": "O=C(O)Cc1ccc(/N=N/c2ccc(O)c(C(=O)O)c2)cc1", "note": "[APAZA™, 5-(4-carboxymethyl-phenylazo)-2-hydroxy-benzoic acid]", "values": [{"measurement": "colon wet weight: body weight ratio, DSS versus DW", "setting": "DSS induced colitis; APAZA 100 mg/kg, sulfasalazine 133 mg/kg", "result": "no statistically significant difference"}, {"measurement": "Disease Activity Index (DAI) score", "setting": "DSS induced colitis; rats drinking 5% DSS, APAZA 100 mg/kg, sulfasalazine 133 mg/kg", "result": "0-1"}, {"measurement": "colonic MPO activity", "setting": "DSS induced colitis; rats receiving DSS", "result": "similar"}, {"measurement": "histological changes of the colon", "setting": "DSS induced colitis; rats receiving DSS", "result": "largely protected"}]}]}
